Laboratory results taken from patent US5849782A, “Methods of inhibiting neurodegenerative diseases” (The General Hospital Corporation, priority 1996, dated 1998).

Legend:
[1] = system: Male Swiss-Webster mice; assay: MPTP-induced neurotoxicity in mice: striatal dopamine, DOPAC, HVA; format: in vivo, mouse; settings: at 1 week
Experimental: Methods. Male Swiss-Webster mice (30-35 g:Taconic Farms, Germantown, N.Y., U.S.A.) were treated with either normal saline or MPTP hydrochloride (Research Biochemicals, Natick, Mass., U.S.A.). MPTP was administered in 0.1 ml of water at a dose of 10 mg/kg i.p. at 2-h intervals for six doses or 20 mg/kg i.p. at 2-h intervals for four doses. 7-NI (Cookson Chemical Ltd., Southhampton, U.K.) was dissolved in peanut oil (Sigma, St. Louis, Mo., U.S.A.) at a concentration of 5 mg/ml. Mice received doses of 25 or 50 mg/kg per subcutaneous injection. MPTP-treated animals were treated with peanut oil or 7-NI 12 h before the first, at every MPTP injection, and every 8 h for 48 h after MPTP injections. Eleven to 12 animals were used in each group. Animals were killed at 1 week. The two striata were rapidly dissected and placed in chilled 0.1M perchloric acid. Tissue was subsequently sonicated, and aliquots were taken for protein quantification using a fluorometric assay (Beal et al., 1990) J. Neurochem. 55:1327-1339).
Dopamine, 3,4-dihydroxyphenlyacetic acid (DOPAC), homovanillic acid (HVA), p-tyrosine, and 3-nitrotyrosine were quantified by HPLC with 16-electrode electrochemical detection (Beal et al. (1990) supra) and are expressed as ng/mg protein (mean±SEM) (FIG. 1). 3-Nitrotyrosine data are expressed as ratios of 3-nitrotyrosine to p-tyrosine to normalize for differing brain concentrations of tyrosine. The statistical significance of differences was determined via one-way ANOVA followed by Fisher PLSD post hoc test to compare group means. All animal use procedures were in strict accordance with the NIH Guide for the Care and Use of Laboratory Animals and were approved by the local Animal Care Committee.

[2] = system: Male Sprague-Dawley rats; assay: Striatal lesions produced by intrastriatal NMDA, AMPA, KA (TTC staining); format: in vivo, rat
Experimental: Stereotaxic Lesion Technique. Male Sprague-Dawley rats (Charles River, Cambridge, Mass.) weighing 300-325 g were anesthetized with pentobarbital (50 mg/kg i.p.) and positioned in a David Kopf stereotaxic instrument with the incisor bar set at 3.3 mm below the intermural line. Malonate, NMDA, KA, and AMPA were dissolved in 0.1M phosphate-buffered saline (pH, 7.4). Intrastriatal injections were made with a 10 μl Hamilton syringe fitted with a 30 gauge blunt-tipped needle into the left striatum at the coordinates 0.5 mm anterior bregma, 2.6 mm lateral to the midline and 5 mm ventral to the dura. Injection volumes were 1 μl (3 μmol malonate). All injections were made over 1 min and the needle was left in place for an additional 1 min before being slowly withdrawn. 7-NI was dissolved and sonicated in peanut oil at a concentration of 10 mg/ml. 50 mg/kg of 7-NI were administered i.p. 30 min before striatal injections of malonate, NMDA, KA and AMPA. […] Nine to ten animals were used per group in each experiment.
Quantification of Lesion Volume. One week after the striatal injections, animals were sacrificed by decapitation and the brains were rapidly removed, placed in cold saline for 10 min, and sectioned coronally into slices at 2 mm intervals. Slices were stained in 2% 2,3,5-triphenyltetrazolium chloride monohydrate (TTC) (Sigma, St. Louis, Mo.) solution at room temperature in the dark for 30 min followed by fixation in phosphate-buffered 4% paraformaldehyde. (Bederson et al. (1986) Stroke 17:1304-1308.) The lesioned area (noted by pale staining) was measured on the posterior surface of each section using an Apple Macintosh.COPYRGT. based image analysis system (Sony color video camera, Software: ColorSnap.COPYRGT. (Computer Friends Inc., Portland, Oreg.) and IPLab Spectrum.COPYRGT. (Signal Analytics, Vienna, Va.)). The lesions were evaluated by an experienced histologist, who verified the reliability of the TTC measurements in animals injected with malonate on adjacent sections stained with either TTC or Nissl stain (Schulz et al. (1995) J. Neurochem 64:in press).

[3] = system: Male Sprague-Dawley rats; assay: Lactate and lesion volume by magnetic resonance after intrastriatal malonate; format: in vivo, rat
Experimental: Localized Lactate Measurements by Magnetic Resonance Spectroscopy. The effects on lactate production of intrastriatal injections of 3 μmol malonate and the influence of pretreatment with 7-NI on these lactate levels were assessed in vivo using magnetic resonance imaging (Brouillet et al. (1993) J. Neurochem. 60:356-359). Male Sprague-Dawley rats weighing 275-325 g received either i.p. injections of peanut oil (vehicle) or 50 mg/kg 7-NI (n=5-6 per group). […] Rats were imaged under halothane/N2 O/O2 anesthesia on a 4.7 Tesla GE Omega CSI Imager using a 30 mm bird cage coil at 1.5-2 h after striatal malonate injections. […] Lesion volumes were measured using a T2 -weighted sequence (TR/TE 3200/80 ms) with slice thickness of 2.5 mm, and a field of view of 40 mm. Lesion volumes were measured using a criterion for abnormal tissue of being 2 standard deviations above the mean signal intensity in the contralateral unaffected striatum. Lactate was measured using double phase encoding three dimensional (x,y,ω) water suppressed chemical shift imaging sequence with an inversion pulse for lipid suppression described earlier (Jenkins et al. (1993) Neurology 43:2689-2695). […] Lactate concentrations were measured in the lesioned striatum by delineating the striatum in the water image and overlaying the contours on the lactate images. […]

[4] = 2 doses of 50 mg/kg 7-NI 4 h and 0.5 h before striatal injection

O=[N+]([O-])c1cccc2cn[nH]c12 [7-NI, 7-nitroindazole]
striatal dopamine, % of control values ([1]; MPTP 10 mg/kg i.p. x6 at 2-h intervals, 7-NI 50 mg/kg s.c.): 92 % of control values | protection against MPTP-induced depletions of dopamine, HVA and DOPAC ([1]; MPTP 20 mg/kg i.p. x4, 7-NI 50 mg/kg): almost complete protection | protection against lesions produced by 5 nmol KA [2, 4]: no protection | protection against lesions produced by 30 nmol AMPA [2, 4]: no protection | protection against lesions produced by 200 nmol NMDA [2, 4]: 35% | striatal lesion volume, 200 nmol NMDA ([2]; single dose 7-NI 50 mg/kg i.p. before striatal injection, vehicle 25.0±2.4): 21.3±3.4 mm^3 | striatal lesion volume, 30 nmol AMPA ([2]; single dose 7-NI 50 mg/kg i.p. before striatal injection, vehicle 33.6±4.6): 30.4±5.2 mm^3 | striatal lesion volume, 5 nmol KA ([2]; single dose 7-NI 50 mg/kg i.p. before striatal injection, vehicle 39.5±2.9): 36.3±4.4 mm^3 | malonate-induced increase in striatal lactate concentrations (MR spectroscopy) ([3]; 7-NI 50 mg/kg i.p. 0.5 h before striatal lesion, 1.5 h after malonate): significantly attenuated | lesion volume by T2-weighted MR imaging ([3]; 2 h after striatal malonate, n=6, vehicle 84.01±16.2, p<0.01): 34.9±27.7 mm^3
